Measured values as given in patent US20260285857A1, “BICYCLIC AND HETEROCYCLIC AMIDE COMPOUNDS” (priority 2024, published 2026).

System: immunoglobulin light chain protein WIL-FL T46L
Experiment: Differential scanning fluorimetry (thermal shift) assay
Assay type: binding
Conditions: temperature shift [Tm]compound-[Tm]vehicle, recombinant WIL-FL T46L

| Compound | DSF (Table B) | DSF (Table A) |
| --- | --- | --- |
| Cc1cc(N2CC[C@](C)(c3ccccc3)C2)cn2nc(C34CC(CO3)C4COC3CCN(c4ccnc(C(=O)O)c4)CC3)nc12 (stereo partly drawn) [Compound 502] | ***** (>2.5° C.=*****) | – |
| CNC(=O)c1nc2c(C(C)O)cc(N3CC[C@](C)(c4ccccc4)C3)cn2n1 (stereo partly drawn) [Compound 336] | – | ***** (>2.5° C.=*****) |
| Cc1cc(N2CC[C@](C)(c3ccccc3)C2)cn2nc(C(=O)NC3CN(c4cccc(C(=O)O)n4)CC3O)nc12 (stereo partly drawn) [Compound 684] | ***** (>2.5° C.=*****) | – |
| Cc1cc(N2CC[C@](C)(c3ccccc3)C2)cn2nc(C(=O)NCC(C)(C)O)nc12 [Compound 100] | – | ***** (>2.5° C.=*****) |
| Cc1cc(N2CC[C@](C)(c3ccccc3)C2)cn2nc(C34CC(CO3)C4NC(=O)C3(C)CN(c4cccc(C(=O)O)n4)C3)nc12 (stereo partly drawn) [Compound 533, 6-(3-methyl-3-((1-(8-methyl-6-((R)-3-methyl-3-phenylpyrrolidin-1-yl)-[1,2,4]triazolo[1,5-a]pyridin-2-yl)-2-oxabicyclo[2.1.1]hexan-5-yl)carbamoyl)azetidin-1-yl)picolinic acid] | ***** (>2.5° C.=*****) | – |
| Cc1cc(OC[C@H](C)c2ccccc2)cn2nc(C(=O)NC3COC4(CCOC4)C3)nc12 (stereo partly drawn) [Compound 303] | – | ***** (>2.5° C.=*****) |
| Cc1cc(N2CC[C@](C)(c3ccccc3)C2)cn2nc(C34CC(CO3)C4Cc3nnc[nH]3)nc12 (stereo partly drawn) [Compound 505, 2-(5-((4H-1,2,4-triazol-3-yl)methyl)-2-oxabicyclo[2.1.1]hexan-1-yl)-8-methyl-6-((R)-3-methyl-3-phenylpyrrolidin-1-yl)-[1,2,4]triazolo[1,5-a]pyridine] | ***** (>2.5° C.=*****) | – |
| Cc1cc(N2CC[C@](C)(c3ccccc3)C2)cn2nc(C(=O)N3CCOCC3)nc12 [Compound 196] | – | ***** (>2.5° C.=*****) |
| CCNC(=O)C12COC(c3nc4c(C)cc(N5CC[C@](C)(c6ccccc6)C5)cn4n3)(C1)C2 [Compound 54] | – | ***** (>2.5° C.=*****) |
| Cc1cc(N2CC[C@](C)(c3ccccc3)C2)cn2nc(C34CC(N)(CO3)C4c3nc(C)n(C)n3)nc12 (stereo partly drawn) [Compound 539] | ***** (>2.5° C.=*****) | – |
| Cc1cc(N2CC[C@](C)(c3ccccc3)C2)cn2nc(C(=O)N3C[C@H]4C[C@@H]3C[C@H]4Oc3cccc(C(=O)O)n3)nc12 [Compound 280] | – | ***** (>2.5° C.=*****) |
| Cc1cc(N2CC3CC2(c2ccccc2)C3)cn2nc(C(=O)N3C[C@@H]4CN(c5cccc(C(=O)O)n5)C[C@@H]4C3)nc12 [Compound 297] | – | * (0-0.5° C.=*) |
| Cc1cc(N2CC[C@](C)(c3ccccc3)C2)cn2nc(C(=O)NC3CN(c4cccc(C(=O)O)n4)CCC3(C)O)nc12 (stereo partly drawn) [Compound 230] | – | ***** (>2.5° C.=*****) |
| Cc1cc(N2CC[C@](C)(c3ccccc3)C2)cn2nc(C(=O)N3CC4CCN(c5cccc(C(=O)O)n5)C4C3)nc12 (stereo partly drawn) [Compound 645] | ***** (>2.5° C.=*****) | – |
| Cc1cc(N2CC[C@](c3ccccc3)(C(F)F)C2)cn2nc(C(=O)NC3CCN(c4ccnc(C(=O)O)c4)CC3)nc12 [Compound 330] | – | **** (>1.5-2.5° C.=****) |
| Cc1cc(N2CC[C@](C)(c3ccccc3)C2)cn2nc(C34CC(CO3)C4c3nc(NS(=O)(=O)[C@H]4CC[C@H](C(=O)O)CC4)n[nH]3)nc12 (stereo partly drawn) [Compound 562] | ***** (>2.5° C.=*****) | – |
| Cc1cc(N2CC[C@](C)(c3ccccc3)C2)cn2nc(S(=O)(=O)NC3CCNC3)nc12 (stereo partly drawn) [Compound 326] | – | ***** (>2.5° C.=*****) |
| Cc1cc(N2CC[C@](C)(c3ccccc3)C2)cn2nc(C34CC(CC(=O)Nc5cccc(C(=O)O)n5)(CO3)C4)nc12 [Compound 460, 6-[[2-[1-[8-methyl-6-[(3R)-3-methyl-3-phenyl-pyrrolidin-1-yl]-[1,2,4]triazolo[1,5-a]pyridin-2-yl]-2-oxabicyclo[2.1.1]hexan-4-yl]acetyl]amino]pyridine-2-carboxylic acid] | ***** (>2.5° C.=*****) | – |
| CCS(=O)(=O)NCC12COC(c3nc4c(C)cc(N5CC[C@](C)(c6ccccc6)C5)cn4n3)(C1)C2 [Compound 463] | ***** (>2.5° C.=*****) | – |
| Cc1cc(N2CC[C@](C)(c3ccccc3)C2)cn2nc(C(=O)NC3CCN(c4cccc(C(=O)O)n4)CC3(C)C)nc12 (stereo partly drawn) [Compound 261] | – | ***** (>2.5° C.=*****) |
| Cc1cc(N2CC[C@](C)(c3ccccc3)C2)cn2nc(C(=O)NC34COC(C(=O)O)(C3)C4)nc12 [Compound 172] | – | ***** (>2.5° C.=*****) |
| Cc1cc(N2CC[C@](C)(c3ccccc3)C2)cn2nc(C34CC(CO)(CO3)C4C(=O)O)nc12 (stereo partly drawn) [Compound 575, 4-(hydroxymethyl)-1-(8-methyl-6-((r)-3-methyl-3-phenylpyrrolidin-1-yl)-[1,2,4]triazolo[1,5-a]pyridin-2-yl)-2-oxabicyclo[2.1.1]hexane-5-carboxylic acid] | ***** (>2.5° C.=*****) | – |
| Cc1cc(N2CCC(C)(c3cncc(F)c3)C2)cn2nc(C(=O)N3CC[C@@]4(CCN(c5cccc(C(=O)O)n5)C4)C3)nc12 (stereo partly drawn) [Compound 424] | – | **** (>1.5-2.5° C.=****) |

| Compound | DSF (Table B) | DSF (Table A) |
| --- | --- | --- |
| Cc1cc(N2CC[C@@](C)(n3ccc(C(F)(F)F)n3)C2)cn2nc(C(=O)NC3COC4(COC4)C3)nc12 (stereo partly drawn) [Compound 593] | ***** (>2.5° C.=*****) | – |
| Cc1ccc([C@@]2(C)CCN(c3cc(C)c4nc(C(=O)N5CC[C@@]6(CCN(c7cccc(C(=O)O)n7)C6)C5)nn4c3)C2)cc1 [Compound 750] | ***** (>2.5° C.=*****) | – |
| Cc1cc(N2CC[C@](C)(c3ccccc3)C2)cn2nc(C(=O)N[C@H]3C[C@](C)(O)C3)nc12 [Compound 167] | – | ***** (>2.5° C.=*****) |
| Cc1cc(N2CCC(C)(c3nn[nH]n3)C2)cn2nc(C(=O)N3C[C@@H]4CN(c5cccc(C(=O)O)n5)C[C@@H]4C3)nc12 (stereo partly drawn) [Compound 401, 6-[5-[8-methyl-6-[3-methyl-3-(2H-tetrazol-5-yl)pyrrolidin-1-yl]-[1,2,4]triazolo[1,5-a]pyridine-2-carbonyl]-1,3,3a, 4,6,6a-hexahydropyrrolo[3,4-c]pyrrol-2-yl]pyridine-2-carboxylic acid] | – | * (0-0.5° C.=*) |
| Cc1cc(N2CC[C@](C)(c3ccccc3)C2)cn2nc(C(=O)N3CCC4(CCN(c5ccc(C(N)=O)c(C(=O)O)n5)C4)C3)nc12 (stereo partly drawn) [Compound 610] | ***** (>2.5° C.=*****) | – |
| Cc1nc(N2CC3(CC(NC(=O)c4nc5c(C)cc(N6CC[C@](C)(c7ccccc7)C6)cn5n4)C3)C2)ccc1C(=O)O [Compound 663] | ***** (>2.5° C.=*****) | – |
| Cc1cc(N2CC[C@](C)(c3ccccc3)C2)cn2nc(C(=O)N[C@H]3CNC[C@H]3F)nc12 [Compound 149] | – | ***** (>2.5° C.=*****) |
| Cc1cc(N2CC[C@](C)(c3ccccc3)C2)cn2nc(C34CCC(N)(CC3)CO4)nc12 [Compound 64] | – | ***** (>2.5° C.=*****) |
| Cc1n[nH]c([C@@H]2[C@@H]3CO[C@@]2(c2nc4c(C)cc(N5CC[C@](C)(c6ccccc6)C5)cn4n2)C3)n1 [Compound 492, 8-methyl-6-[(3R)-3-methyl-3-phenyl-pyrrolidin-1-yl]-2-[(1S,4R,5S)-5-(3-methyl-1H-1,2,4-triazol-5-yl)-2-oxabicyclo[2.1.1]hexan-1-yl]-[1,2,4]triazolo[1,5-a]pyridine] | ***** (>2.5° C.=*****) | – |
| Cc1cc(N2CC[C@](C)(c3ccccc3)C2)cn2nc(C(=O)N3CC4C(C3)C4Nc3cccc(C(=O)O)n3)nc12 (stereo partly drawn) [Compound 622] | ***** (>2.5° C.=*****) | – |
| Cc1cc(N2CC[C@](C)(c3ccccc3)C2)cn2nc(C3OC4(C)CC3(C(N)=O)C4)nc12 (stereo partly drawn) [Compound 476] | ***** (>2.5° C.=*****) | – |
| Cc1cc(N2CC[C@](C)(c3ccccc3)C2)cn2nc(C(=O)N3CCC4(CCC(C5CCC(C(=O)O)CC5)C4)C3)nc12 (stereo partly drawn) [Compound 674, 4-(2-(8-methyl-6-((R)-3-methyl-3-phenylpyrrolidin-1-yl)-[1,2,4]triazolo[1,5-a]pyridine-2-carbonyl)-2-azaspiro[4.4]nonan-7-yl)cyclohexane-1-carboxylic acid] | ***** (>2.5° C.=*****) | – |
| Cc1cc(N2CC[C@](C)(c3ccccc3)C2)cn2nc(C(=O)NC3CCCN(c4cccc(C(=O)O)n4)C3)nc12 (stereo partly drawn) [Compound 219] | – | ***** (>2.5° C.=*****) |
| Cc1cc(N2CC[C@](C)(c3ccccc3)C2)cn2nc(C(=O)NC3COC4(CCOC4)C3)nc12 (stereo partly drawn) [Compound 145] | – | ***** (>2.5° C.=*****) |
| Cc1cc(OC[C@H](C)c2ccccc2)cn2nc(C(=O)NC3CCN(c4ccnc(C(=O)O)c4)CC3)nc12 [Compound 320] | – | ***** (>2.5° C.=*****) |
| Cc1cc(N2CC[C@](C)(c3ccccc3)C2)cn2nc(C34CC(C(=O)Nc5ccnc(C(=O)O)c5)(CO3)C4)nc12 [Compound 456] | ***** (>2.5° C.=*****) | – |
| Cc1cc(N2CC[C@](C)(c3ccccc3)C2)cn2nc(C(=O)NCC3(O)CCOCC3)nc12 [Compound 116] | – | ***** (>2.5° C.=*****) |
| CNC(=O)c1nc2c(C(F)F)cc(N3CC[C@](C)(c4ccccc4)C3)cn2n1 [Compound 760, (R)-8-(difluoromethyl)-N-methyl-6-(3-methyl-3-phenylpyrrolidin-1-yl)-[1,2,4]triazolo[1,5-a]pyridine-2-carboxamide] | ***** (>2.5° C.=*****) | – |
| Cc1cc(N2CC[C@](C)(c3ccccc3)C2)cn2nc(C(=O)NCC3CCN(c4cccc(C(=O)O)n4)CC3)nc12 [Compound 647] | ***** (>2.5° C.=*****) | – |
| Cc1cc(N2CC[C@](C)(c3ccccc3)C2)cn2nc(C34CC(CO)(CO3)C4c3nnnn3C)nc12 (stereo partly drawn) [Compound 571] | ***** (>2.5° C.=*****) | – |
| Cc1cc(N2CC[C@](C)(c3ccccc3)C2)cn2nc(C3OC4(C)CC3(C(=O)O)C4)nc12 (stereo partly drawn) [Compound 474, 1-methyl-3-[8-methyl-6-[(3R)-3-methyl-3-phenyl-pyrrolidin-1-yl]-[1,2,4]triazolo[1,5-a]pyridin-2-yl]-2-oxabicyclo[2.1.1]hexane-4-carboxylic acid] | **** (>1.5-2.5° C.=****) | – |
| Cc1cc(N2CC[C@](C)(c3ccccc3)C2)cn2nc(C(=O)N3CC(C(=O)O)C4(COC4)C3)nc12 (stereo partly drawn) [Compound 603] | ***** (>2.5° C.=*****) | – |
